What was measured:
[1] = test system: Streptococcus mutans (RCMB 0100172); test: Inhibition zone, agar cup diffusion; conditions: RCMB0100172, 24 h, read-out: inhibition zones (IZ) S. mutans
[2] = test system: Bacillus subtilis (RCMB 0100162); test: Inhibition zone, agar cup diffusion; conditions: RCMB0100162, 24 h, read-out: inhibition zones (IZ) B. subtillis
[3] = biological target: T1, human recombinant COX-2 (Homo sapiens, UniProt P35354); test: In vitro COX-2 enzymatic assay (Cayman kit 560131); conditions: for SI COX-1/COX-2: COX-2 selectivity index: COX-1 IC50/COX-2 IC50
T1 sequence (P35354 18-604): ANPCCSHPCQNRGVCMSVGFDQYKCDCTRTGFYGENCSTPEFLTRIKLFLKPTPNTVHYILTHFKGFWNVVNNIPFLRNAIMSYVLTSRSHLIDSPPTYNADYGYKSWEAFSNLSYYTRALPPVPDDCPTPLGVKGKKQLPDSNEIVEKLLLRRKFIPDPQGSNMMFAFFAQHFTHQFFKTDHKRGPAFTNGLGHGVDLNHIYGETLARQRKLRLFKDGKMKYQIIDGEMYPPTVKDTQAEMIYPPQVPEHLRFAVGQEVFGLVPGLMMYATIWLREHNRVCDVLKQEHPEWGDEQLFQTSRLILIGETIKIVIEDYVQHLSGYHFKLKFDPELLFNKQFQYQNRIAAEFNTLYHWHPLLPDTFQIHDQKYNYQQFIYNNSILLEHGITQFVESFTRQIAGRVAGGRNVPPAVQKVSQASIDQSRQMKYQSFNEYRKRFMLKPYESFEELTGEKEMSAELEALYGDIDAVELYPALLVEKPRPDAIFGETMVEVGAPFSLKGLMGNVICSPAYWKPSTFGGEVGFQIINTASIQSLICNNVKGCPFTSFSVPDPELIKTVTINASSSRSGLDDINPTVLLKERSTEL

[4] = test system: Staphylococcus epidermidis (RCMB 0100183); test: Inhibition zone, agar cup diffusion; conditions: RCMB0100183, 24 h, read-out: inhibition zones (IZ) S. epidermidis
[5] = test system: Staphylococcus aureus (RCMB 0100183); test: Inhibition zone, agar cup diffusion; conditions: RCMB0100183, 24 h, read-out: inhibition zones (IZ) S. aureus
[6] = test system: Pseudomonas aeruginosa (RCMB 0100243); test: Inhibition zone, agar cup diffusion; conditions: RCMB0100243, 24 h, read-out: inhibition zones (IZ) P.aeruginosa
[7] = biological target: T2, ovine COX-1 (Ovis aries, UniProt P05979); test: In vitro COX-1 enzymatic assay (Cayman kit 560131); type: biochemical; conditions: Mean ± SEM of triplicate determinations
T2 construct: purchased Cayman Chemicals Inc. 560131
T2 sequence (P05979 25-600): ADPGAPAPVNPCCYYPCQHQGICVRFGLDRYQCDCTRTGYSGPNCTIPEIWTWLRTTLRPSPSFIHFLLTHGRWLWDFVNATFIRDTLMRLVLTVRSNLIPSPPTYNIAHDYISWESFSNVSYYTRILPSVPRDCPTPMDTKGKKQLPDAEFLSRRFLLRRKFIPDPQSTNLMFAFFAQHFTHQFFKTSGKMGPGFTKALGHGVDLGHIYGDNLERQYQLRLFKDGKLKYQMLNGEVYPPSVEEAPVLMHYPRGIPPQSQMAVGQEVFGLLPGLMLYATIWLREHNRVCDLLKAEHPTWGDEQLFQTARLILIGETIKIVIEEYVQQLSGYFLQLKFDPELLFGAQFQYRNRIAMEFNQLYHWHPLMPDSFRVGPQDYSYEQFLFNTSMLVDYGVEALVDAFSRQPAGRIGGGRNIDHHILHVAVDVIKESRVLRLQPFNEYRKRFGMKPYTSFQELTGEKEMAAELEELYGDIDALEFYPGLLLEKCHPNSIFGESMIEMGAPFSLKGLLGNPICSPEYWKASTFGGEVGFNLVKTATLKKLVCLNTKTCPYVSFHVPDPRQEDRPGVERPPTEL

[8] = test system: Salmonella typhi (RCMB 0100104); test: Inhibition zone, agar cup diffusion; type: cell-based; conditions: Salmonella enterica, 24 h, read-out: inhibition zones (IZ) S. typhi
[9] = test system: Shigella dysenteriae (RCMB 0100542); test: Inhibition zone, agar cup diffusion; type: cell-based; conditions: RCMB0100542, 24 h, read-out: inhibition zones (IZ) S. dysenteriae
[10] = test system: Proteus vulgaris (RCMB 010085); test: Inhibition zone, agar cup diffusion; conditions: RCMB010085, 24 h, read-out: inhibition zones (IZ) P. vulgaris
[11] = test system: Escherichia coli (RCMB 010052); test: Inhibition zone, agar cup diffusion; conditions: RCMB010052, 24 h, read-out: inhibition zones (IZ) E.coli

O=C(NCc1ccccc1)c1cc(/N=N/c2ccc(S(=O)(=O)Nc3nccs3)cc2)ccc1O [Compound 5f, N-Benzyl-2-hydroxy-5-((4-(N-(thiazol-2-yl)sulfamoyl)phenyl)diazenyl) benzamide]
zone of inhibition at 1000 µg/mL [1]: 27 mm | zone of inhibition at 1000 µg/mL [2]: 17 mm | IC50 [3]: 110 ± 3 nM | SI COX-1/COX-2 [3]: 88.2 | zone of inhibition at 1000 µg/mL [4]: 36 mm | zone of inhibition at 1000 µg/mL [5]: 24 mm | zone of inhibition at 1000 µg/mL [6]: 16 mm | IC50 [7]: 9.7 ± 0.06 µM | zone of inhibition at 1000 µg/mL [8]: 16 mm | zone of inhibition at 1000 µg/mL [9]: 25 mm | zone of inhibition at 1000 µg/mL [10]: 17 mm | zone of inhibition at 1000 µg/mL [11]: 16 mm

NS(=O)(=O)c1ccc(/N=N/c2ccc(O)c(C(=O)N3CCOCC3)c2)cc1 [Compound 5l, 4-((4-Hydroxy-3-(morpholine-4-carbonyl)phenyl)diazenyl) benzenesulfonamide]
zone of inhibition at 1000 µg/mL [1]: 26 mm | zone of inhibition at 1000 µg/mL [2]: 20 mm | IC50 [3]: 80 ± 1 nM | SI COX-1/COX-2 [3]: 134.2 | zone of inhibition at 1000 µg/mL [4]: 32 mm | zone of inhibition at 1000 µg/mL [5]: 18 mm | zone of inhibition at 1000 µg/mL [6]: 14 mm | IC50 [7]: 10.2 ± 0.08 µM | zone of inhibition at 1000 µg/mL [8]: 17 mm | zone of inhibition at 1000 µg/mL [9]: 26 mm | zone of inhibition at 1000 µg/mL [10]: 19 mm | zone of inhibition at 1000 µg/mL [11]: 14 mm

CC1(C)S[C@@H]2[C@H](NC(=O)[C@H](N)c3ccccc3)C(=O)N2[C@H]1C(=O)O [Ampicillin, reference compound]
zone of inhibition at 1000 µg/mL [1]: 30 mm | zone of inhibition at 1000 µg/mL [2]: 15 mm | zone of inhibition at 1000 µg/mL [4]: 32 mm | zone of inhibition at 1000 µg/mL [5]: 30 mm

CCCCNC(=O)c1cc(/N=N/c2ccc(S(=O)(=O)Nc3ncccn3)cc2)ccc1O [Compound 5c, N-Butyl-2-hydroxy-5-((4-(N-(pyrimidin-2-yl)sulfamoyl)phenyl)diazenyl) benzamide]
zone of inhibition at 1000 µg/mL [1]: 31 mm | zone of inhibition at 1000 µg/mL [2]: 19 mm | IC50 [3]: 80 ± 0.3 nM | SI COX-1/COX-2 [3]: 145.5 | zone of inhibition at 1000 µg/mL [4]: 30 mm | zone of inhibition at 1000 µg/mL [5]: 29 mm | zone of inhibition at 1000 µg/mL [6]: 16 mm | IC50 [7]: 11.2 ± 0.08 µM | zone of inhibition at 1000 µg/mL [8]: 13 mm | zone of inhibition at 1000 µg/mL [9]: 25 mm | zone of inhibition at 1000 µg/mL [10]: 17 mm | zone of inhibition at 1000 µg/mL [11]: 16 mm

NS(=O)(=O)c1ccc(/N=N/c2ccc(O)c(C(=O)NCc3ccccc3)c2)cc1 [Compound 5e, N-Benzyl-2-hydroxy-5-((4-sulfamoylphenyl)diazenyl) benzamide]
zone of inhibition at 1000 µg/mL [1]: 30 mm | zone of inhibition at 1000 µg/mL [2]: 16 mm | IC50 [3]: 120 ± 3 nM | SI COX-1/COX-2 [3]: 69.2 | zone of inhibition at 1000 µg/mL [4]: 35 mm | zone of inhibition at 1000 µg/mL [5]: 32 mm | zone of inhibition at 1000 µg/mL [6]: 18 mm | IC50 [7]: 8.3 ± 0.06 µM | zone of inhibition at 1000 µg/mL [8]: 16 mm | zone of inhibition at 1000 µg/mL [9]: 25 mm | zone of inhibition at 1000 µg/mL [10]: 21 mm | zone of inhibition at 1000 µg/mL [11]: 16 mm

O=C(NCc1ccccc1)c1cc(/N=N/c2ccc(S(=O)(=O)Nc3ncccn3)cc2)ccc1O [Compound 5g, N-Benzyl-2-hydroxy-5-((4-(N-(pyrimidin-2-yl)sulfamoyl)phenyl)diazenyl) benzamide]
zone of inhibition at 1000 µg/mL [1]: 30 mm | zone of inhibition at 1000 µg/mL [2]: 20 mm | IC50 [3]: 100 ± 0.3 nM | SI COX-1/COX-2 [3]: 109.4 | zone of inhibition at 1000 µg/mL [4]: 32 mm | zone of inhibition at 1000 µg/mL [5]: 26 mm | zone of inhibition at 1000 µg/mL [6]: 14 mm | IC50 [7]: 10.5 ± 0.08 µM | zone of inhibition at 1000 µg/mL [8]: 13 mm | zone of inhibition at 1000 µg/mL [9]: 26 mm | zone of inhibition at 1000 µg/mL [10]: 17 mm | zone of inhibition at 1000 µg/mL [11]: 16 mm

C[C@H]1COc2c(N3CCN(C)CC3)c(F)cc3c(=O)c(C(=O)O)cn1c23 [Levofloxacin, levofloxacin, reference compound]
zone of inhibition at 1000 µg/mL [6]: 8 mm | zone of inhibition at 1000 µg/mL [8]: 11 mm | zone of inhibition at 1000 µg/mL [9]: 20 mm | zone of inhibition at 1000 µg/mL [10]: 15 mm | zone of inhibition at 1000 µg/mL [11]: 11 mm
